A short description of series [1]: Stability of the hemiacetal, 1H NMR measured again. It counts as physicochemical. The following applies: 1H NMR measured again one day later; two sets of signals approx. 1:0.6. The text has this:
Compound 2 (ensifolin B) has the molecular formula C25H24O4 compatible with the fragment ion in the HRESIMS at m/z 369.1497 [M − H2O − H]^− (calcd for 369.1491). […] The structure of the phenanthrene skeleton was assembled through 2D NMR analysis. It was concluded that the phenanthrene core of compound 2 is identical to sylvaticin A, a 9,10-dihydrophenanthrene recently described from Luzula sylvatica. However, NMR characteristics of the H2-11 oxymethylene in 2 are different compared to those of sylvaticin A, including its […] shifted carbon (δC 66.2 vs. 60.2) and magnetically inequivalent protons (δH 5.19 and 5.09, vs. δH 5.01, 2H, s). […] Similar to compound 1, ensifolin B (2) also has an asymmetric carbon atom (C-1′). The specific rotation value [α ]D25 of the compound was +2 (c 0.1, MeOH). When compound 2 was injected onto a chiral HPLC column, it eluted with two well-separated peaks with a peak ratio area of 1:1. […] Intermolecular hemiacetals are intrinsically unstable with respect to their parent alcohols and aldehydes. […] Considering that sylvaticin A and 4-hydroxybenzaldehyde, the minor compounds of the mixture were also isolated from other fractions (compound 16 and 18, respectively), it is unclear whether these phytochemicals originally presented in the harvested plant material or whether they are just by-products of the decomposition of compound 2.

For series [2], the system named is COLO 205 doxorubicin-sensitive colonic adenocarcinoma cells. Description: Antiproliferative MTT assay, COLO 205. The format is cell-based, human. The following applies: for IC50: MTT, 72 h, four parallel measurements, read-out: IC50 (µM) ± SD COLO 205; for SI MRC-5/COLO 205: selectivity index: IC50 in non-tumour cells / IC50 in cancer cells.
Method: (§1) The human colon adenocarcinoma cells (COLO 205 sensitive and the resistant COLO 320/MDR-LRP expressing P-gp), namely, ATCC-CCL-220.1 (COLO 320) and CCL-222 (COLO 205) were cultured in RPMI 1640 medium supplemented with 10% heat-inactivated fetal bovine serum, 2 mM L-glutamine, 1 mM Na pyruvate, and 100 mM HEPES. HeLa (ATCC® CCL-2™) human cervix carcinoma cells, and MRC-5 (ATCC® CCL-171) human embryonal lung fibroblast cells were cultured in Eagle’s minimal essential medium (EMEM, containing 4.5 g/L glucose) supplemented with a non-essential amino acid mixture, a selection of vitamins, and 10% heat-inactivated fetal bovine serum. The cell lines were detached with 0.25% trypsin and 0.02% EDTA for 5 min at 37 °C.
(§2) In the study, human colonic adenocarcinoma cell lines (doxorubicin-sensitive COLO 205 and multidrug resistant COLO 320 colonic adenocarcinoma cells), HeLa human cervix carcinoma cells and the MRC-5 non-cancerous human embryonic lung fibroblast cell line were used to determine the effect of the compounds on cell growth. The effects of increasing concentrations of compounds on cell growth were tested in 96-well flat-bottomed microtiter plates. […] The compounds were diluted in a volume of 100 μL of the medium. The adherent cells were cultured in 96-well flat-bottomed microtiter plates using EMEM supplemented with 10% heat-inactivated fetal bovine serum. The density of the cells was adjusted to 6 × 10^3 cells in 100 µL per well, the cells were seeded prior to the assay for 24 h at 37 °C, with 5% CO2, and then the medium was removed from the plates, and fresh medium (100 µL per well) was added to the cells. The effects of increasing concentrations of compounds on cell proliferation were tested in 96-well flat-bottomed microtiter plates. The compounds were diluted in the appropriate medium; the dilutions of compounds were performed in separate plates and then added to the cells. The starting concentration of the compounds was 100 µM, and two-fold serial dilution was performed (concentration range: 100–0.19 µM). The culture plates were incubated at 37 °C for 72 h; at the end of the incubation period, 20 µL of MTT (thiazolyl blue tetrazolium bromide, Sigma) solution (from a stock solution of 5 mg/mL) was added to each well. After incubation at 37 °C for 4 h, 100 µL of sodium dodecyl sulfate (SDS) (Sigma) solution (10% in 0.01 M HCI) was added to each well, and the plates were further incubated at 37 °C overnight. Cell growth was determined by measuring the optical density (OD) at 540/630 nm, with a Multiscan EX ELISA reader (Thermo Labsystems, Cheshire, WA, USA). Inhibition of cell growth (expressed as IC50: inhibitory concentration that reduces the growth of the cells exposed to the tested compounds by 50%) was determined from the sigmoid curve where 100 − ((ODsample − ODmedium control)/(ODcell control − ODmedium control)) × 100 was plotted against the logarithm of the compound concentrations. Curves were fitted by Prism5 software (GraphPad Software Inc., San Diego, CA, USA) from four parallel experiments for each cell line. Results are expressed in terms of IC50, defined as the inhibitory dose that reduces the proliferation of the cells exposed to the tested compounds by 50% [20].
The test system of series [3] is MRC-5 human embryonal lung fibroblast cells. Description: Antiproliferative MTT assay, MRC-5 non-tumor cells. It counts as cell-based. The following applies: four parallel measurements, read-out: IC50 (µM) ± SD MRC-5.
Method: as §1, §2
In series [4] the test system is HeLa cells. Description: Drug combination assay with doxorubicin (MTT, CompuSyn). The following applies: for Interaction: interaction type with doxorubicin; for CI (combination index): with doxorubicin, 72 h, average over drug ratios at IC50. It counts as cell-based, human. Details: key to CI (combination index): CI <1 synergy, ~1 additivity, >1 antagonism. On the procedure:
The HeLa cell line was used to perform this assay. Doxorubicin (2 mg/mL, Teva Pharmaceuticals, Budapest, Hungary) was serially diluted in the horizontal direction, starting with 8.6 µM. The resistance modifier was subsequently diluted in the vertical direction, and the starting concentration was determined based on the IC50. The dilutions of doxorubicin were made in a horizontal direction in 100 µL, and the dilutions of the resistance modifiers occurred vertically in the microtiter plate in a 50 µL volume. The compounds and doxorubicin were diluted separately. […] Then, diluted compounds with a volume of 50 μL were added to each well to reach a final volume of 200 μL. The plates were incubated for 72 h at 37 °C in a CO2 incubator, and at the end of the incubation period, the cell growth was determined by the MTT staining method, as described earlier. Drug interactions were evaluated using CompuSyn software. Each dose-response curve (for individual agents as well as combinations) was fit to a linear model using the median effect equation in order to obtain the median effect value (corresponding to the IC50) and slope (m). The goodness-of-fit was assessed using the linear correlation coefficient, r, and only data from analysis with r > 0.90 are presented. The extent of the interaction between drugs was expressed using the combination index in which a CI value close to 1 indicates additivity, while CI < 1 is defined as synergy and CI > 1 as antagonism.

The test system of series [5] is COLO 320/MDR-LRP multidrug resistant colonic adenocarcinoma cells expressing P-gp. Nature of the series: Antiproliferative MTT assay, COLO 320. The following applies: for IC50: read-out: IC50 (µM) ± SD COLO 320; for SI MRC-5/COLO 320: selectivity index: IC50 in non-tumour cells / IC50 in cancer cells.
Method: as §1, §2
Series [6] deals with HeLa human cervix carcinoma cells. Nature of the series: Antiproliferative MTT assay, HeLa. The following applies: for IC50: MTT, 72 h, four parallel measurements, read-out: IC50 (µM) ± SD HeLa; for SI MRC-5/HeLa: selectivity index: IC50 in non-tumour cells / IC50 in cancer cells. It counts as cell-based.
Method: as §1, §2
Series [7] has as its system superoxide anion generation. Details: method as in PMID 27940118. The following applies: anti-inflammatory activity ref 16; cited from earlier work.
The test system of series [8] is HeLa cells. Details: method as in PMID 33064469. The following applies: HeLa ref 15; read-out: IC50 antiproliferative activity against HeLa cells; cited from earlier work.
In another series the test system is human neutrophils. Details: method as in PMID 27940118. The following applies: fMLP/CB activation ref 16, read-out: IC50 elastase release; cited from earlier work.

Data on three compounds can be found in article PMC8949129, “Unique Phenanthrenes from Juncus ensifolius and Their Antiproliferative and Synergistic Effects with the Conventional Anticancer Agent Doxorubicin against Human Cancer Cell Lines” (Pharmaceutics, 2022).

Where two headings read alike, the source gives them in different places.

As to `C=Cc1cc(C)cc2c1-c1ccc(O)c(COC(O)c3ccc(O)cc3)c1CC2` (centres unmarked) [Compound 2, Ensifolin B], in series [1], the “stability of initially pure compound” value was “showed signs of decomposition”. Moreover, the IC50 in series [2] (Homo sapiens, COLO 205, 72 h) came out at 45.6 ± 0.5 µM; in [3] (Homo sapiens, MRC5, 72 h) it was 51.87 ± 0.14 µM; in series [5] (Homo sapiens, COLO 320, 72 h), 37.24 ± 0.11 µM; in series [6] (Homo sapiens, HeLa), 33.49 ± 0.29 µM. Moreover, the “SI MRC-5/COLO 205” value in [2] worked out at 1.14. Besides, the Interaction entry in the series on HeLa cells [4] was “synergism (0.3 < CI < 0.7: synergism)”. For the same compound, the “CI (combination index)” value with HeLa cells [4] is recorded as 0.584. The “SI MRC-5/COLO 320” value in series [5] came out at 1.39. The “SI MRC-5/HeLa” value in [6] amounted to 1.55.
`C=Cc1c(C)c(O)cc2c1-c1ccc(O)c(C)c1CC2` [juncusol, reference compound]: the IC50 in series [7] is 3.1 µM.
Turning to juncuenin B [Compound 15], the IC50 in [2] is 37.1 ± 0.57 µM; in series [3] (72 h), 35.9 ± 1.23 µM; in the series on HeLa cells [8] it was 2.9 µM; in series [7] it was 4.9 µM; with human neutrophils it was 5.5 µM; in series [5] (MTT, 72 h, four parallel measurements), 30.5 ± 0.93 µM. In addition, the half-maximal inhibitory concentration (IC50) in series [6] worked out at 6.67 ± 0.03 µM. In series [2], the “SI MRC-5/COLO 205” value amounted to 0.97. For the same compound, the Interaction result in the series on HeLa cells [4] was “slight synergism (0.7 < CI < 0.9: moderate to slight synergism)”. Further, in the series with HeLa cells [4], the “CI (combination index)” value came to 0.864. Further, the “SI MRC-5/COLO 320” value in series [5] was determined as 1.17. For the same compound, in [6], the “SI MRC-5/HeLa” value is listed as 5.37.
